According to patent US5614512A, “20-Oxo-pregnacalciferol analogs with binding affinity to the progesterone receptor” (Wisconsin Alumni Research Foundation, priority 1995, dated 1997):

Columns and labels:
[1] = test system: calcium homeostasis; conditions: in animals and humans; cited from earlier work
[2] = test system: vitamin D receptor; conditions: U.S. Pat. No. 5,397,776; cited from earlier work
[3] = U.S. Pat. No. 5,397,776; cited from earlier work
[4] = test system: progesterone receptor (PR); conditions: U.S. Pat. No. 5,397,776; cited from earlier work
[5] = target: T1, progesterone receptor (Homo sapiens, UniProt P06401); experiment: Competitive binding of test compounds vs 3H-R5020 to the progesterone receptor (MCF-7 cytosol); conditions: for Total Binding (DPM) ± S.D.: 3H-R5020 (20 nM) bound; for Total Binding (DPM) ± S.D. / inhibition: competitor at 400× fold excess, 12-14 hours on ice; for binding to the PR (in words): compared with 20-oxopregnacalciferol where stated; for inhibition: of 3H-R5020 (20 nM) binding
T1 construct: The source of the progesterone receptor is the cytosolic fraction of MCF-7 cells (human breast cancer cell line); endogenous in cells; host or cells: MCF-7 cells (human breast adenocarcinoma), cytosolic fraction, 10 nM estradiol for 24 h before harvest
T1 sequence (P06401 1-933): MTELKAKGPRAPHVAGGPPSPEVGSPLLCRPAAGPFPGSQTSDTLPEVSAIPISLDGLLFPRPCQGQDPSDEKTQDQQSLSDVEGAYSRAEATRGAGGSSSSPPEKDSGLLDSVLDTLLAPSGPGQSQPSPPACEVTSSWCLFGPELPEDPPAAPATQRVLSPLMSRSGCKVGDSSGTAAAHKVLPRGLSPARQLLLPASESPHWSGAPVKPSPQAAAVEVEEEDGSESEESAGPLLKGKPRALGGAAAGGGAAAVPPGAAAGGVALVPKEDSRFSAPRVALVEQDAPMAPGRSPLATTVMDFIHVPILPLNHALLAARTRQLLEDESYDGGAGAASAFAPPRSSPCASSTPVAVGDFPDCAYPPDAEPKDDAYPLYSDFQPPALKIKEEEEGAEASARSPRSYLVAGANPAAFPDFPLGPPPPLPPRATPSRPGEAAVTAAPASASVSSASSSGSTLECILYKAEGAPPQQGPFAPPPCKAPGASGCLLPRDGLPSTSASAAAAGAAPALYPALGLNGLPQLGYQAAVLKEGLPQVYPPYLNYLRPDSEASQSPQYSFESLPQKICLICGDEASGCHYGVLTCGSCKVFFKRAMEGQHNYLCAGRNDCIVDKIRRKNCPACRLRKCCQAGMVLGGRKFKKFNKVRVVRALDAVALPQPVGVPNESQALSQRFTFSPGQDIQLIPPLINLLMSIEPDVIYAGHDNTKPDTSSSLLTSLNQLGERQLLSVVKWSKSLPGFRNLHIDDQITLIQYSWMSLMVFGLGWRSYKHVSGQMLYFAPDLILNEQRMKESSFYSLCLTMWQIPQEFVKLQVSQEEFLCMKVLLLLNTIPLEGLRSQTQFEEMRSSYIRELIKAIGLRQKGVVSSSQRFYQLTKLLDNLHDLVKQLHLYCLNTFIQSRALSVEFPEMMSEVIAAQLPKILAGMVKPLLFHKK
Description: Cell culture and extract preparation: Human Breast Adenocarcinoma cells (MCF-7 cells) extract is used as the progesterone receptor source. The cells were grown to confluency in phenol red-free DMEM with 10% calf serum. After replacing the medium, the cells were dosed with 10 nM Estradiol and incubated for an additional 24 hours to induce the expression of the progesterone receptor. The cells were washed with Hanks Balanced Salt Solution (HBSS: 5.0 mM KCl, 0.3 mM KH2 PO4, 138 mM NaCl, 4.0 mM NaHCO3, 0.3 mM Na2HPO4, 5.6 mM D-Glucose, 1.3 mM CaCl2 and 0.5 mM MgCl2.6H2O) and then incubated with Ca/Mg-free HBSS+1 mM EDTA for 5-10 minutes at 37° C. After harvesting, the cells were pelleted by centifugation for 5.0 minutes at 4.0° C. The cell pellet was then resuspended in TDG buffer (10 mM Tris-HCl, pH 7.4, 0.5 mM DTT and 50% Glycerol) and sonicated for 15 seconds. The cytosolic fraction was obtained by centrifugation at 50,000 RPM for 20 minutes in TLA 100.2 rotor. The supernatent (cytosol) was removed and stored on ice for use in the binding assay. The Cytosolic fraction was always prepared fresh. Binding Assay: The ability of the test compounds to compete for binding to the progesterone receptor was tested as follows: 1--The incubation mix consisted of the following: 100 μl 3H-R5020 (20 nM) 5 μl Ethanol or test compound in the ethanol providing a 400 fold excess of compound 100 μl MCF-7 Cell Extract 2--The mixture was incubated 12-14 hours on ice. 3--250 μl of 50% HAP slurry was added+3 mL of TDG buffer. 4--The samples are allowed to sit on ice for 30 minutes with vortexing every 10 minutes. 5--The HAP was pelleted by centrifugation at 1500 rpms for 3 minutes. 6--The pellet was washed three more times with TDG buffer. 7--The final pellet was resuspended in 1 ml Ethanol, vortexed and allowed to sit at room temperature for 30 minutes with vortexing every 10 minutes. 8--The samples were finally centrifuged at 2000 rpms. The supernatent was removed, mixed with counting fluid and the amount of radioactivity in each sample was determined by counting in a beta scintillation counter. 1--The source of the progesterone receptor is the cytosolic fraction of MCF-7 cells (human breast cancer cell line) which were dosed with Estradiol 24 hours prior to harvesting and processing. 2--The cytosolic fractions used in all the binding measurements were freshly prepared. No frozen extracts were used. 3--All competitive compounds were added at 400× fold excess of the labelled R5020.

[6] = test system: glucocorticosteroid; conditions: Teutsch et al, U.S. Pat. No. 4,386,085; cited from earlier work
[7] = test system: pregnancy; conditions: used in conjunction with synthetic prostaglandins; cited from earlier work
[8] = test system: progesterone; conditions: Teutsch et al, U.S. Pat. No. 4,386,085; cited from earlier work

| Compound | Total Binding (DPM) ± S.D. [5] | binding to the PR (in words) [5] | inhibition [5] | further results |
| --- | --- | --- | --- | --- |
| C=C1/C(=C\C=C2/CCC[C@]3(C)[C@@H]([C@H](C)/C=C/[C@H](C)C(C)(C)O)CC[C@@H]23)C[C@@H](O)C[C@@H]1O [1α,25-dihydroxyvitamin D2] |  |  |  | regulation of calcium homeostasis (in words) [1]: highly potent regulators of calcium homeostasis |
| C=C1/C(=C\C=C2/CCC[C@]3(C)[C@@H]([C@H](C)CCCC(C)(C)O)CC[C@@H]23)C[C@@H](O)C[C@@H]1O [1α,25-dihydroxyvitamin D3] |  |  |  | regulation of calcium homeostasis (in words) [1]: highly potent regulators of calcium homeostasis |
| C=C1/C(=C\C=C2/CCC[C@]3(C)[C@@H](C(C)=O)CC[C@@H]23)C[C@@H](O)C[C@@H]1O [1α-hydroxy-20-oxopregnacaliciferol] |  |  |  | binding to the vitamin D receptor (in words) [2]: nor did they bind to the vitamin D receptor; calcemic activity (in words) [3]: None of the above three compounds had any calcemic activity; binding to the PR (in words) [4]: prevents binding to the PR |
| C[C@H](CO)[C@H]1CC[C@H]2/C(=C/C=C3CCCCC3)CCC[C@]12C [4a, 19-Nor-3-desoxy-22-hydroxy-homopregnacalciferol] | 4139 ± 62 DPM | did also bind to the PR | 13% |  |
| C[C@H](CO)[C@H]1CC[C@H]2/C(=C/C=C3CCC4(CC3)OCCO4)CCC[C@]12C [4b, 19-Nor-3-desoxy-2-ethylene ketal-22-hydroxyhomopregnacalciferol] | 2881 ± 152 DPM | did also bind to the PR but to a lesser degree | 40% |  |
| C[C@H](C=O)[C@H]1CC[C@H]2/C(=C/C=C3CCCCC3)CCC[C@]12C [5a, 19-Nor-3-desoxy-homopregnacalciferol 22-aldehyde] | 3045 ± 90 DPM | did also bind to the PR | 36% | binding to the PR, times more than the 20-ketone 6a ([5]; compared with 20-ketone 6a): 1.5 times |
| C[C@H](C=O)[C@H]1CC[C@H]2/C(=C/C=C3CCC4(CC3)OCCO4)CCC[C@]12C [5b, 19-Nor-3-desoxy-2-ethylene ketal-homopregnacalciferol 22-aldehyde] | 2546 ± 120 DPM | did also bind to the PR but to a lesser degree | 47% |  |
| CC(=O)[C@H]1CC[C@H]2/C(=C/C=C3CCCCC3)CCC[C@]12C [6a, 19-Nor-3-desoxy-20-oxopregnacalciferol] | 3616 ± 171 DPM |  | 24% | binding to the PR, lesser degree than 20-oxopregnacalciferol ([5]; compared with previously synthesized 20-oxopregnacalciferol): 40% |
| CC(=O)[C@H]1CC[C@H]2/C(=C/C=C3CCC4(CC3)OCCO4)CCC[C@]12C [6b, 19-Nor-3-desoxy-2-ethylene ketal-20-oxopregna-calciferol] | 2531 ± 165 DPM | did also bind to the PR but to a lesser degree | 47% |  |
| CC(=O)[C@H]1CC[C@H]2/C(=C/C=C3CCC(=O)CC3)CCC[C@]12C [6c, 19-Nor-3-desoxy-2,20-dioxopregnacalciferol] | 2036 ± 133 DPM | almost the same binding activity to the PR | 58% |  |
| CC(=O)[C@H]1CC[C@H]2/C(=C/C=C3C[C@@H](O)C[C@H](O)C3)CCC[C@]12C [19-nor-1α-hydroxy-20-oxopregnacalciferol] |  |  |  | binding to the vitamin D receptor (in words) [2]: nor did they bind to the vitamin D receptor; calcemic activity (in words) [3]: None of the above three compounds had any calcemic activity; binding to the PR (in words) [4]: prevents binding to the PR |
| C=C1CC[C@H](O)C/C1=C/C=C1\CCC[C@]2(C)[C@@H](C(C)=O)CC[C@@H]12 [20-oxopregnacalciferol, 20-oxo-pregnacalciferol] | 1950 ± 170 DPM |  | 59% | binding to the vitamin D receptor (in words) [2]: nor did they bind to the vitamin D receptor; calcemic activity (in words) [3]: None of the above three compounds had any calcemic activity; binding to the PR (in words) [4]: did bind to the PR |
| CCC(=O)[C@@]1(C)CC[C@H]2[C@@H]3CCC4=CC(=O)CCC4=C3CC[C@@]21C [R5020, reference compound] | 750 ± 231 DPM |  |  |  |
| CC#C[C@]1(O)CC[C@H]2[C@@H]3CCC4=CC(=O)CCC4=C3[C@@H](c3ccc(N(C)C)cc3)C[C@@]21C [RU 486] |  |  |  | antiglucocorticosteroid activity (in words) [6]: strong; termination of pregnancy (in words) [7]: terminates pregnancy; antiprogesterone activity (in words) [8]: strong |
